Test results as given in patent publication US10907159B2, “Methods of treating cancer by inhibition of DNA repair proteins using antisense based therapies” (SARISSA INC., priority 2015, dated 2021).

Assays:
SKOV-3 cells = test: Cell proliferation assay, ASO transfection and/or drug (cell counting); type: cell-based, human; conditions: FIG. 49
Experimental: FIG. 24 illustrates that BRCA2 inhibition sensitizes ovarian cancer and breast cancer cell lines to olaparib treatment. SKOV-3 (A) and CaOV3 (B) cells were transfected with control ASO (•) or BRCA2 ASO (∘) and then treated with three different concentrations of olaparib. Proliferation was determined by cell counting 96 hours post-transfection (*p<0.05). C: BRCA2 mRNA levels were measured by qPCR 24 hours following BRCA2 ASO transfection in SKOV-3, CaOV3, 211 H and H2052 cell lines.
E: SKOV-3 cells were transfected with control or BRCA2 ASO and then treated with olaparib 24 hours post transfection. Ninety-six hours post transfection, cells were counted, plated, and re-transfected with control ASO or BRCA2 ASO and re-treated with olaparib. Cell counts were performed 96 hours post transfection (*p<0.05). […]
A: BRCA2-wild type SKOV-3 cells (black bars), […] MCF-7 cells (white bars), and BRCA2-mutated CAPAN-1 cells (grey bars) were treated simultaneously but separately with BRCA2 ASO (20 nM). […] Ninety-six hours post-transfection, cells were counted and proliferation determined (% of proliferation after control ASO treatment).
C: SKOV-3, MCF-7 and CAPAN-1 cells were treated with two different concentrations of olaparib for 96 hours. After drug treatment they were counted and proliferation was determined as a percent of that of vehicle-treated cells. […]

A549b cells = test: cells; type: cell-based, human; conditions: for enhancement of cisplatin (words): BR1 ASO pretreatment, FIGS. 38, 50
Experimental: OLIGOs were introduced into cells with the use of Lipofectamine 2000 (LFA2K) (Invitrogen, Burlington, Ontario, Canada). OLIGOs were mixed with LFA2K at a ratio of 0.2 μg/ml per 10 nM OLIGO. The mixture was prepared at 11× the final concentration to which cells were exposed, so that 200 μL was added to 2 mL of medium in which cells were plated. After incubating at room temperature for 20 minutes, according to manufacturer's instructions, the OLIGOs were added to the cell medium. The OLIGO/LFA2K mix was then incubated (37° C.) on the cells for 4 hours, after which a second volume of medium was added. Cells were then incubated for 20 hours. Following this incubation, the OLIGO-containing medium was replaced with OLIGO-free medium.
For cells treated with the drug olaparib, for the purposes of determining whether inhibitory activity was enhanced by the OLIGO pretreatment, olaparib was added at this time, in concentrations of from 0.01 μM to 3 μM. At this point, replicate flasks from the OLIGO-treatment were used to enumerate cell content, as this varied among treatments over the initial 24-hour exposure. This was done so that the effect of treatment with olaparib could be ascertained based on the cell population that was present at the time of initiation of exposure to olaparib. Exposure to the olaparib was initiated by addition of 0.2-volume of a preparation of the drug, at 6× final concentration in growth medium, to the fresh drug-free medium on the cells (1 ml of drug into 5 ml of medium). Following a further 4-day incubation, the proliferation of the treated cells (fold-increase in cell number) was calculated as a percentage of that of control cells. Cell numbers were enumerated on an electronic particle counter (Beckman Coulter, Mississauga, ON). As indicated in Example 1, for the purpose of determining the anti-proliferative effect of antisense OLIGOs alone, the proliferation of cells treated with antisense OLIGOs was calculated as a percent of that of cells treated with an equivalent concentration of non-complementary control OLIGO (in this case OLIGO 32). However, for the purpose of determining the anti-proliferative effect of olaparib against antisense or non-complementary (control) OLIGO-treated cells, the proliferation was calculated as a percent of cells treated with the respective OLIGO.
These experiments were carried out essentially as described in Example 3, with the following changes. The drug tested was cisplatin instead of olaparib, and cisplatin was tested in concentrations ranging from 0.5 μM to 2 μM.
These experiments were carried out essentially as described in Example 3, with the following changes. The drug tested was melphalan in concentrations ranging from 2 μM to 10 μM.
These experiments were carried out essentially as described in Example 3, with the following changes. The drug tested was carboplatin at concentrations ranging from 5 μM to 40 μM.
These experiments were carried out essentially as described in Example 3, with the following changes. The drug tested was oxaliplatin was tested in concentrations ranging from 0.2 μM to 2.5 μM.
Cisplatin was added to the final concentration indicated, and as described in Example 3. Cells were incubated for 4 days, at which time cell number was counted. Proliferation was calculated as a percent of siRNA-treated, non-cisplatin-treated controls.

MDA-MB-231 cells = test: Cell proliferation assay, ASO transfection then drug (cell counting); type: cell-based, human; conditions: FIG. 49
Experimental: Four hours post-transfection, cells were seeded into 6 well dishes in appropriate experimental groups. […] Ninety-six hours post transfection, cells were collected and counted (Coulter Particle Counter). Proliferation was determined based on initial cell density and calculated as a percentage of ASO+vehicle treated cells.

[1] = tested on: EP156T primary prostate epithelial cells; test: Veliparib after BR1 pretreatment; type: cell-based; conditions: FIG. 37
BRCA2 mRNA = test: RT-qPCR of BRCA2 mRNA in A549 cells after OLIGO transfection; type: cell-based, human; conditions: 20 nM OLIGO, 24 hours post-transfection; FIG. 16
Experimental: Briefly, A549 cells seeded at a density of 2.0×10^5 per flask were transfected with 20 nM of OLIGO specific for each target or control OLIGO using Lipofectamine 2000 as the transfection reagent. Twenty four hours post-transfection mRNA was extracted and reverse transcribed into cDNA. RT-qPCR was performed for target mRNA levels using TaqMan reagents according to established protocols.

Substance: 5′-guaucuCTTGACGTuccuua-3′ (GUAUCUCTTGACGTUCCUUA; gapmer, lower-case wings modified, type not given here) [BR1]
- effect on antiproliferative activity of cisplatin (SKOV-3 cells): enhances the antiproliferative activity of cisplatin
- enhanced inhibition of proliferation by olaparib (% decrease in the IC50 value) (A549b cells; A549 cells, ASO pre-incubation, FIGS. 34, 35): up to 95%
- enhancement of cisplatin (words) (A549b cells; A549 cells): enhances cisplatin
- enhancement of cisplatin (words) (A549b cells; A549 cells, listed as BR-1): enhances the antiproliferative activity of cisplatin or melphalan
- enhanced the anti-proliferative effect of olaparib (A549b cells; BR1 pretreatment, at a given concentration of olaparib, FIG. 2): over 40%
- enhancement of veliparib (A549b cells; BR1 vs ODN 32, A549 cells, FIGS. 36, 37): enhances veliparib
- effect on antiproliferative activity of cisplatin (MDA-MB-231 cells): enhances the antiproliferative activity of cisplatin
- enhancement of veliparib [1]: little or not at all
- effect on BRCA2 mRNA level (BRCA2 mRNA): reduction in BRCA2 mRNA
